According to patent publication US20250073348A1, “CAMPTOTHECIN CONJUGATES” (priority 2018, published 2025):

Columns and labels:
[1] = tested on: DEL-BVR (DEL brentuximab vedotin resistant line); test: In vitro cytotoxicity on MDR+ line, CellTiter-Glo, 96 h; type: cell-based; conditions: Table 6
Description: (§1) In vitro potency was assessed on multiple cancer cell lines. All cell lines were authenticated by STR profiling at IDEXX Bioresearch and cultured for no more than 2 months after resuscitation. Cells cultured in log-phase growth were seeded for 24 hours in 96-well plates containing 150 μl RPMI 1640 supplemented with 20% FBS. Serial dilutions of antibody-drug conjugates in cell culture media were prepared at 4× working concentrations, and 50 μl of each dilution was added to the 96-well plates. Following addition of test articles, cells were incubated with test articles for 4 days at 37° C. After 96 hours, growth inhibition was assessed by CellTiter-Glo® (Promega, Madison, WI) and luminescence was measured on a plate reader. The EC50 value, determined in triplicate, is defined here as the concentration that results in 50% reduction in cell growth relative to untreated controls.
(§2) In the following Tables IC50 values for ADCs and CPT free drugs are given in ng/mL and […] concentrations, respectively, with parenthetic values representing percent cells remaining at the highest concentration tested (1000 ng/mL for ADCs and 1 μM for CPT free compound, unless otherwise indicated) relative to untreated cells. Cell viability was determined by CellTiter-Glo staining after 96 h exposure to ADC. ND=Not Determined. […]

DEL = test: In vitro cytotoxicity, CellTiter-Glo, 96 h; type: cell-based; conditions: Table 6
Description: as §1, §2

[2] = 1000 ng/mL, relative to untreated cells

Substance: Ag2-vcMMAE (8): vcMMAE conjugate on Ag2; "Ag2 refers to cAC10, which targets the CD30 antigen"
- percent cells remaining at the highest dose tested, DEL/BVR [1, 2]: 93%
- IC50 DEL/BVR ([1]; Ag2(+), MDR(+) DEL-BVR, 96 h): >1000 ng/mL
- percent cells remaining at the highest dose tested, DEL (DEL; [2]): 1%
- IC50 DEL (DEL; Ag2(+) parental DEL, 96 h): 0.5 ng/mL
